Measurements taken from patent publication US9889183B2, “PKC activators and anticoagulant in regimen for treating stroke” (BLANCHETTE ROCKEFELLER NEUROSCIENCES INSTITUTE, priority 2010, dated 2018).

What was measured:
[1] = test system: TACE in N2a neuroblastoma cells; test: TACE assay, N2a cells; format: cell-based; conditions: N2a mouse neuroblastoma cells, FIG. 13a
Description: FIGS. 13a, 13b and 13c show effects of (FIG. 13a) bryostatin, BR-101 (DCP-LA) and BR-111 (DHA-CP6) on TACE activity in N2a neuroblastoma cells transfected with human APPSwe/PS1D; (FIG. 13b) various concentrations of bryostatin on TACE activity in rat cortical primary neurons; and (FIG. 13c) BR-111 (DHA-CP6) on TACE activity in rat cortical primary neurons.
TACE Assay. TACE was measured by incubating 5 μl cell homogenate, 3 μl buffer (50 mM Tris-HCl 7.4 plus 25 mM NaCl plus 4% glycerol), and 1 μl of 100 μM TACE substrate (Aβz-[…]-DPa) (Calbiochem) for 20 min at 37° C. 1.5-ml polypropylene centrifuge tubes. Jin et al., Anal. Biochem. (2002), vol. 302, pp. 269-275. The reaction was stopped by cooling to 4° C. The samples were diluted to 1 ml and the fluorescence was rapidly measured (ex=320 nm, em=420 nm) in a Spex Fluorolog 2 spectrofluorometer.
Buxbaum et al., J Biol. Chem. (1998), vol. 273, pp. 27765-27767; Etcheberrigaray et al., Proc. Natl. Acad. Sci. USA (2006), vol. 103, pp. 8215-8220. However, many of these earlier studies were carried out in fibroblasts and other non-neuronal cell types, which appear to respond differently to PKC activators than neurons.

[2] = test system: Aβ in neuro2a (N2a) neuroblastoma cells; test: Aβ production in N2a cells transfected with human APPSwe/PS1D (ELISA); format: cell-based, mouse; conditions: for levels of intracellular Aβ / levels of secreted Aβ: various concentrations; for levels of intracellular Aβ: FIG. 11a; for levels of secreted Aβ: FIG. 11b; for concentration dependence of Aβ inhibition: up to 10 μM to 100 μM, no evidence of downregulation
Description: Cell culture. Rat hippocampal H19-7/IGF-IR cells (ATCC, Manassas, Va.) were plated onto poly-L-lysine coated plates and grown at 35° C. in DMEM/10% FCS for several days until about 50% coverage was obtained. The cells were then induced to differentiate into a neuronal phenotype by replacing the medium with 5 ml N2 medium containing 10 ng/ml basic fibroblast growth factor at 39° C. and grown in T-75 flasks at 37° C. Human SH-SY5Y neuroblastoma cells (ATCC) were cultured in 45% F12K/45% MEM/10% FCS. Mouse N2A neuroblastoma cells were cultured in DMEM/10% FCS without glutamine. Rat hippocampal neurons from 18-day-old embryonic Sprague Dawley rat brains were plated on 12- or 96-well plates coated with poly-D-lysine (Sigma-Aldrich, St. Louis, Mo.) in B-27 neurobasal medium containing 0.5 mM glutamine and 25 μM glutamate (Invitrogen, Carlsbad, Calif.) and cultured for three days in the medium without glutamate. The neuronal cells were grown under 5% CO2 in an incubator maintained at 37° C. for 14 days.
(§1) Aβ Measurement and Cell Viability Assay. Aβ was measured using an Aβ 1-42 human fluorimetric ELISA kit (Invitrogen) according to the manufacturer's instructions. Results were measured in a Biotek Synergy HT microplate reader. AlamarBlue and CyQuant NF (Invitrogen) according to the manufacturer's instructions.
To measure the effects of PKCε activation on Aβ production, mouse neuro2a (N2a) neuroblastoma cells transfected with human APPSwe/PSID were used, which produce large quantities of Aβ. Petanceska et al., J Neurochem. (1996), vol. 74, pp. 1878-1884. […] With bryostatin, which activates PKC by binding to the diacylglycerol-binding site, the inhibition was biphasic with concentrations of 20 nM or higher producing no net effect. This may be explained by the ability of this class of PKC activators to downregulate PKC when used at high concentrations.

[3] = test system: SH-SY5Y neuroblastoma cells; test: Cell survival and proliferation (alamar Blue, CyQuant); format: cell-based, human
Description: as §1

[4] = test system: Endothelin-converting enzyme (ECE); test: ECE assay in neuroblastoma cells; format: cell-based, human; conditions: bryostatin 0.27 nM, BR-101 1 μM, BR-111 1 μM; FIG. 14
Description: ECE assay. […] neuroblastoma cells were incubated with bryostatin (0.27 nM), BR-101 (DCP-LA) (1 μM), and BR-111 (DHA-CP6) (1 μM). Endothelin-converting enzyme (ECE) was measured fluorimetrically using the method of Johnson and Ahn (Anal. Biochem. (2000), vol. 286, pp. 112-118). A sample of cell homogenate (20 μl) was incubated in 50 mM MES-KOH, pH 6.0, 0.01% C12E10 (polyoxyethylene-10-lauryl ether), and 15 μM McaBK2 (7-Methoxycoumarin-4-acetyl [Ala7-(2,4-Dinitrophenyl)Lys9]-bradykinin trifluoroacetate salt) (Sigma-Aldrich). After 60 min at 37° C., the reaction was quenched by adding trifluoroacetic acid to 0.5%. The sample was diluted to 1.4 ml with water and the fluorescence was measured at ex=334 nm, em=398 nm.

| Structure (SMILES) | TACE activity [1] | levels of intracellular Aβ ([2]; 24 hours) | levels of secreted Aβ ([2]; 24 hours) | concentration dependence of Aβ inhibition [2] | effect on cell survival (alamar Blue) [3] | effect on proliferation (CyQuant) [3] | ECE activity [4] | concentrations producing no net effect on Aβ (biphasic inhibition) ([2]; 24 hours) [nM] |
| --- | --- | --- | --- | --- | --- | --- | --- | --- |
| CCCCCC1CC1CC1CC1CCCCCCCC(=O)O (stereo not drawn) [BR-101, 2-[(2-pentylcyclopropyl)methyl]cyclopropaneoctanoic acid] | small increases | markedly reduced | markedly reduced | monotonically increasing inhibition | no effect | no effect | sustained increase | – |
| CCC1CC1CC1CC1CC1CC1CC1CC1CC1CC1CC1CC1CCC(=O)OC (stereo not drawn) [BR-111, methyl-3-(2-((2-((2-((2-((2-((2-ethylcyclopropyl)methyl)cyclopropyl)methyl)cyclopropyl)methyl)-cyclopropyl)methyl)cyclopropyl)methyl)cyclopropyl)propanoate] | small increases | markedly reduced | markedly reduced | monotonically increasing inhibition | no effect | no effect | sustained increase | – |
| CCC/C=C/C=C/C(=O)O[C@H]1/C(=C/C(=O)OC)C[C@H]2C[C@H]([C@@H](C)O)OC(=O)C[C@H](O)C[C@@H]3C[C@H](OC(C)=O)C(C)(C)[C@](O)(C[C@@H]4C/C(=C/C(=O)OC)C[C@H](/C=C/C(C)(C)[C@]1(O)O2)O4)O3 [Bryostatin-1, bryostatin-1] | small increases | markedly reduced | markedly reduced | – | no effect | no effect | sustained increase | ≥ 20 |
